Source: patent US20230085307A1, “PYRIDAZINONE COMPOUND AND HERBICIDE” (NISSAN CHEMICAL CORPORATION, priority 2019, published 2023)

How the values were obtained:
[1] = test system: late watergrass; assay: Test Example 1: herbicidal activity, application before weed generation under submerged conditions (Table 16, symbol A); type: in vivo, late watergrass (Echinochloa oryzicola); conditions: 320 g/ha applied herbicide
In short: (§1)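 Alluvial soil was flooded to 4 cm depth, weed seeds were sown mixed and 2.5-leaf rice seedlings were transplanted. On sowing day, the compound's emulsion, diluted in water to a set dose, was applied to the water surface. Plants grew at 25–30 °C and were scored 0–5 after three weeks.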

[2] = test system: Japanese bulrush; assay: Test Example 1: herbicidal activity, application before weed generation under submerged conditions (Table 16, symbol B); type: in vivo, Japanese bulrush (Schoenoplectus juncoides); conditions: 320 g/ha applied herbicide
In short: as §1

[3] = test system: oval-leafed pondweed; assay: Test Example 1: herbicidal activity, application before weed generation under submerged conditions (Table 16, symbol C); type: in vivo, oval-leafed pondweed (Monochoria vaginalis); conditions: 320 g/ha applied herbicide
In short: as §1

[4] = test system: barnyard grass; assay: Test Example 3: herbicidal effect by foliage application, Wagner pot (Table 18, symbol H); type: in vivo, barnyard grass (Echinochloa crus-galli)
In short: (§2)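 Plants were sown in alluvial soil held under 0.1–0.5 cm standing water and grown 14 days in a greenhouse at 25–30 °C. An emulsifiable formulation, water-diluted to the set dose, was then sprayed onto the foliage, and effects were scored three weeks later using previously defined criteria.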

[5] = test system: Chinese sprangletop; assay: Test Example 3: herbicidal effect by foliage application, Wagner pot (Table 18, symbol D); type: in vivo, chinese sprangletop (Leptochloa chinensis)
In short: as §2

[6] = test system: rice flat sedge; assay: Test Example 3: herbicidal effect by foliage application, Wagner pot (Table 18, symbol E); type: in vivo, rice flat sedge (Cyperus iria)
In short: as §2

[7] = test system: southern crabgrass; assay: Test Example 5: herbicidal effect by foliage application, plastic box (Table 20, symbol F); type: in vivo, southern crabgrass (Digitaria ciliaris); conditions: foliage application
In short: (§3)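 Plants were sown into sterilized diluvial soil under about 1.5 cm cover and kept in a greenhouse at 25° C. to 30° C. Fourteen days on, foliage received an even spray of the diluted emulsion. Herbicidal or crop effect was judged three weeks afterwards.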

[8] = test system: green foxtail; assay: Test Example 5: herbicidal effect by foliage application, plastic box (Table 20, symbol G); type: in vivo, green foxtail (Setaria viridis); conditions: foliage application
In short: as §3

[9] = test system: barnyard grass; assay: Test Example 5: herbicidal effect by foliage application, plastic box (Table 20, symbol H); type: in vivo, barnyard grass (Echinochloa crus-galli); conditions: foliage application
In short: as §3

[10] = test system: wild oat; assay: Test Example 5: herbicidal effect by foliage application, plastic box (Table 20, symbol I); type: in vivo, wild oat (Avena fatua); conditions: foliage application
In short: as §3

[11] = test system: blackgrass; assay: Test Example 5: herbicidal effect by foliage application, plastic box (Table 20, symbol J); type: in vivo, blackgrass (Alopecurus myosuroides); conditions: foliage application
In short: as §3

[12] = test system: Italian ryegrass; assay: Test Example 5: herbicidal effect by foliage application, plastic box (Table 20, symbol K); type: in vivo, Italian ryegrass (Lolium multiflorum); conditions: foliage application
In short: as §3

[13] = test system: windgrass; assay: Test Example 5: herbicidal effect by foliage application, plastic box (Table 20, symbol L); type: in vivo, windgrass (Apera spica-venti); conditions: foliage application
In short: as §3

[14] = test system: velvetleaf; assay: Test Example 5: herbicidal effect by foliage application, plastic box (Table 20, symbol M); type: in vivo, velvetleaf (Abutilon theophrasti); conditions: foliage application
In short: as §3

[15] = test system: redroot pigweed; assay: Test Example 5: herbicidal effect by foliage application, plastic box (Table 20, symbol N); type: in vivo, redroot pigweed (Amaranthus retroflexus); conditions: foliage application
In short: as §3

[16] = test system: lambsquarters; assay: Test Example 5: herbicidal effect by foliage application, plastic box (Table 20, symbol O); type: in vivo, lambsquarters (Chenopodium album); conditions: foliage application
In short: as §3

[17] = test system: chickweed; assay: Test Example 5: herbicidal effect by foliage application, plastic box (Table 20, symbol P); type: in vivo, common chickweed (Stellaria media); conditions: foliage application
In short: as §3

[18] = test system: false cleavers; assay: Test Example 5: herbicidal effect by foliage application, plastic box (Table 20, symbol Q); type: in vivo, false cleavers (Galium spurium); conditions: foliage application
In short: as §3

[19] = test system: persian speedwell; assay: Test Example 5: herbicidal effect by foliage application, plastic box (Table 20, symbol R); type: in vivo, Persian speedwell (Veronica persica); conditions: foliage application
In short: as §3

[20] = AAH 320 g/ha, three weeks after application
[21] = 320 g/ha, three weeks after application
[22] = amount of applied herbicide 320 g/ha
[23] = AAH 320 g/ha, evaluated three weeks after application

## Cc1ccccc1C(=O)Oc1c(C)nn(C)c(=O)c1-c1c(-c2ccc3c(c2)OCCO3)sc2ccccc12 [1-093]
[1]
  Herbicidal effect on A: late watergrass (grade 0-5): 3 (Herbicidal rate of 40% or more and less than 70%)
[2]
  Herbicidal effect on B: Japanese bulrush (grade 0-5): 1 (Herbicidal rate of 5% or more and less than 20%)
[3]
  Herbicidal effect on C: oval-leafed pondweed (grade 0-5): 0 (Herbicidal rate of 5% or less (almost no effect))
[4]; 320 g/ha
  herbicidal effect on H (barnyard grass), rating 0-5: 3 (Herbicidal rate of 40% or more and less than 70%)
[5]; 320 g/ha
  herbicidal effect on D (Chinese sprangletop), rating 0-5: 0 (Herbicidal rate of 5% or less (almost no effect))
[6]; 320 g/ha
  herbicidal effect on E (rice flat sedge), rating 0-5: 5 (Herbicidal rate of 90% or more (almost completely withered))
[7]; [20]
  F: southern crabgrass, herbicidal effect: 0 (Herbicidal rate of 5% or less (almost no effect))
[8]; [20]
  G: green foxtail, herbicidal effect: 0 (Herbicidal rate of 5% or less (almost no effect))
[9]; [20]
  H: barnyard grass, herbicidal effect: 0 (Herbicidal rate of 5% or less (almost no effect))
[10]; [20]
  I: wild oat, herbicidal effect: 0 (Herbicidal rate of 5% or less (almost no effect))
[11]; [20]
  J: blackgrass, herbicidal effect: 0 (Herbicidal rate of 5% or less (almost no effect))
[12]; [20]
  K: Italian ryegrass, herbicidal effect: 0 (Herbicidal rate of 5% or less (almost no effect))
[13]; [20]
  L: windgrass, herbicidal effect: 0 (Herbicidal rate of 5% or less (almost no effect))
[14]; [20]
  M: velvetleaf, herbicidal effect: 5 (Herbicidal rate of 90% or more (almost completely withered))
[15]; [20]
  N: redroot pigweed, herbicidal effect: 3 (Herbicidal rate of 40% or more and less than 70%)
[16]; [20]
  O: lambsquarters, herbicidal effect: 2 (Herbicidal rate of 20% or more and less than 40%)
[17]; [20]
  P: chickweed, herbicidal effect: 1 (Herbicidal rate of 5% or more and less than 20%)
[18]; [20]
  Q: false cleavers, herbicidal effect: 0 (Herbicidal rate of 5% or less (almost no effect))
[19]; [20]
  R: persian speedwell, herbicidal effect: 4 (Herbicidal rate of 70% or more and less than 90%)

## CCCCCCOc1ccc(-c2sc3ccccc3c2-c2c(OC(=O)CCC)c(C)nn(C)c2=O)cc1 [1-029]
[1]
  Herbicidal effect on A: late watergrass (grade 0-5): 0 (Herbicidal rate of 5% or less (almost no effect))
[2]
  Herbicidal effect on B: Japanese bulrush (grade 0-5): 1 (Herbicidal rate of 5% or more and less than 20%)
[3]
  Herbicidal effect on C: oval-leafed pondweed (grade 0-5): 2 (Herbicidal rate of 20% or more and less than 40%)
[7]; [21]
  herbicidal effect grade, F: southern crabgrass: 0 (Herbicidal rate of 5% or less (almost no effect))
[8]; [21]
  herbicidal effect grade, G: green foxtail: 0 (Herbicidal rate of 5% or less (almost no effect))
[9]; [21]
  herbicidal effect grade, H: barnyard grass: 0 (Herbicidal rate of 5% or less (almost no effect))
[10]; [21]
  herbicidal effect grade, I: wild oat: 0 (Herbicidal rate of 5% or less (almost no effect))
[11]; [21]
  herbicidal effect grade, J: blackgrass: 0 (Herbicidal rate of 5% or less (almost no effect))
[12]; [21]
  herbicidal effect grade, K: Italian ryegrass: 0 (Herbicidal rate of 5% or less (almost no effect))
[13]; [21]
  herbicidal effect grade, L: windgrass: 0 (Herbicidal rate of 5% or less (almost no effect))
[14]; [21]
  herbicidal effect grade, M: velvetleaf: 2 (Herbicidal rate of 20% or more and less than 40%)
[15]; [21]
  herbicidal effect grade, N: redroot pigweed: 4 (Herbicidal rate of 70% or more and less than 90%)
[16]; [21]
  herbicidal effect grade, O: lambsquarters: 2 (Herbicidal rate of 20% or more and less than 40%)
[17]; [21]
  herbicidal effect grade, P: chickweed: 5 (Herbicidal rate of 90% or more (almost completely withered))
[18]; [21]
  herbicidal effect grade, Q: false cleavers: 1 (Herbicidal rate of 5% or more and less than 20%)
[19]; [21]
  herbicidal effect grade, R: persian speedwell: 0 (Herbicidal rate of 5% or less (almost no effect))

## C=CCOc1cccc(-c2sc3ccc(F)cc3c2-c2c(O)c(C)nn(C)c2=O)c1 [2-269]
[1]
  Herbicidal effect on A: late watergrass (grade 0-5): 3 (Herbicidal rate of 40% or more and less than 70%)
[2]
  Herbicidal effect on B: Japanese bulrush (grade 0-5): 3 (Herbicidal rate of 40% or more and less than 70%)
[3]
  Herbicidal effect on C: oval-leafed pondweed (grade 0-5): 3 (Herbicidal rate of 40% or more and less than 70%)
[4]; [22]
  herbicidal effect on H: barnyard grass: 3 (Herbicidal rate of 40% or more and less than 70%)
[5]; [22]
  herbicidal effect on D: Chinese sprangletop: 0 (Herbicidal rate of 5% or less (almost no effect))
[6]; [22]
  herbicidal effect on E: rice flat sedge: 3 (Herbicidal rate of 40% or more and less than 70%)
[7]; [23]
  F: southern crabgrass, herbicidal effect (criteria 0-5): 0 (Herbicidal rate of 5% or less (almost no effect))
[8]; [23]
  G: green foxtail, herbicidal effect (criteria 0-5): 0 (Herbicidal rate of 5% or less (almost no effect))
[9]; [23]
  H: barnyard grass, herbicidal effect (criteria 0-5): 0 (Herbicidal rate of 5% or less (almost no effect))
[10]; [23]
  I: wild oat, herbicidal effect (criteria 0-5): 0 (Herbicidal rate of 5% or less (almost no effect))
[11]; [23]
  J: blackgrass, herbicidal effect (criteria 0-5): 0 (Herbicidal rate of 5% or less (almost no effect))
[12]; [23]
  K: Italian ryegrass, herbicidal effect (criteria 0-5): 0 (Herbicidal rate of 5% or less (almost no effect))
[13]; [23]
  L: windgrass, herbicidal effect (criteria 0-5): 0 (Herbicidal rate of 5% or less (almost no effect))
[14]; [23]
  M: velvetleaf, herbicidal effect (criteria 0-5): 0 (Herbicidal rate of 5% or less (almost no effect))
[15]; [23]
  N: redroot pigweed, herbicidal effect (criteria 0-5): 0 (Herbicidal rate of 5% or less (almost no effect))
[16]; [23]
  O: lambsquarters, herbicidal effect (criteria 0-5): 0 (Herbicidal rate of 5% or less (almost no effect))
[17]; [23]
  P: chickweed, herbicidal effect (criteria 0-5): 3 (Herbicidal rate of 40% or more and less than 70%)
[18]; [23]
  Q: false cleavers, herbicidal effect (criteria 0-5): 0 (Herbicidal rate of 5% or less (almost no effect))
[19]; [23]
  R: persian speedwell, herbicidal effect (criteria 0-5): 1 (Herbicidal rate of 5% or more and less than 20%)
